Results on 2 compounds are retold here after US5650404A, “Therapeutic composition for pancreatitis” (Senju Pharmaceutical Co., Ltd., priority 1994, dated 1997).

For data set [1], the system named is ethionine-induced pancreatitis (serum amylase). Description: Effect on serum amylase elevation in ethionine-induced severe pancreatitis. It counts as in vivo, female BALB/c mice. To be noted: for serum amylase level, 0 Hr: 0 Hr (start of ethionine-supplemented food, before dosing at 12 h); for serum amylase level, 0 Hr / serum amylase level, 24 Hr / serum amylase level, 48 Hr: p.o., EPC-K 141 mg/10 ml/kg, camostat 100 mg/10 ml/kg, mean ± S.E.; for serum amylase level, 24 Hr: 24 h after beginning of ethionine-supplemented food; for serum amylase level, 48 Hr: 48 h after beginning of ethionine-supplemented food, *1 (EPC-K): p < 0.01 vs distilled water. Here is the method:
The therapeutic efficacy of the compound was tested in ethionine-induced pancreatitis which is a model of severe human pancreatitis. The efficacy evaluation was based on the degree of inhibition of the release of amylase into blood which is an indicator of pancreatitis.
(1) Investigational Substance
L-Ascorbyl DL-α-tocopheryl phosphate potassium (briefly, EPC-K) 141 mg/10 ml/kg, p.o.
Camostat monomethanesulfonate (Ono Pharmaceutical) 100 mg/10 ml/kg, p.o.
Animals used: Thirty female BALB/c mice weighing about 18 g as purchased from Japan SLC were used in this experiment. The mice were accommodated in an animal room controlled at 24°±4° C. and 55±15% R. H. and while the animals in the ethionine-induced pancreatitis groups were given low-choline, 0.54 ethionine-supplemented food (prepared by SLC) ad libitum, the animals in the untreated control group were given Labo MR Stock (tradename) (Nihon Nosan Kogyo) ad libitum. Water was freely available for animals in the ethionine pancreatitis groups and the untreated group. The mice were deprived of food 12 hours before commencement of feeding.
Method: Each test substance was administered 12 hours after the beginning of intake of ethionine-supplemented food. Blood sampling was made 24 and 48 hours after the beginning of intake of ethionine-supplemented food and the serum amylase levels were determined.

The nature of another data set: LD50 (toxicity). To be noted: rat, in vivo, rats.

Like-named read-outs stand apart in the source and are kept apart here.

For `Cc1c(C)c2c(c(C)c1OP(=O)(O)OC1=C(O)[C@@H]([C@@H](O)CO)OC1=O)CCC(C)(CCCC(C)CCCC(C)CCCC(C)C)O2` (mixture of isomers) [EPC-K, L-Ascorbyl DL-α-tocopheryl phosphate potassium], in data set [1], the “serum amylase level, 0 Hr” value came to 14573 ± 3132 mU/ml; the “serum amylase level, 24 Hr” value turned out to be 12926 ± 2217 mU/ml; the “serum amylase level, 48 Hr” value came to 16257 ± 9763 mU/ml. Also, the LD50 (as a rule, the dose at which mortality reaches 50%) in “LD50 (toxicity)” (iv, i.v., read-out: LD50 i.v.) was at least 100 mg/kg. The LD50 in “LD50 (toxicity)” (po, p.o., read-out: LD50 p.o.) was at least 5000 mg/kg.

As to `CN(C)C(=O)COC(=O)Cc1ccc(OC(=O)c2ccc(NC(=N)N)cc2)cc1` [Camostat monomethanesulfonate], in data set [1], the “serum amylase level, 0 Hr” value came to 13978 ± 1012 mU/ml; the “serum amylase level, 24 Hr” value is reported as 12628 ± 1542 mU/ml; the “serum amylase level, 48 Hr” value was found to be 36288 ± 13921 mU/ml. Further, the “inhibition of serum amylase elevation (in words)” value in data set [1] (48 h, compared with distilled water group) is reported as “no inhibitory effect on amylase elevation”.
